Measurements: ChEMBL document CHEMBL1201862, “PubChem BioAssay data set” (2004)
Calls of active or inactive are those of the source.

Biological target: Cytochrome P450 2C9 (Homo sapiens, UniProt P11712)
Settings: not given

Sequence of Cytochrome P450 2C9 (P11712 whole entry): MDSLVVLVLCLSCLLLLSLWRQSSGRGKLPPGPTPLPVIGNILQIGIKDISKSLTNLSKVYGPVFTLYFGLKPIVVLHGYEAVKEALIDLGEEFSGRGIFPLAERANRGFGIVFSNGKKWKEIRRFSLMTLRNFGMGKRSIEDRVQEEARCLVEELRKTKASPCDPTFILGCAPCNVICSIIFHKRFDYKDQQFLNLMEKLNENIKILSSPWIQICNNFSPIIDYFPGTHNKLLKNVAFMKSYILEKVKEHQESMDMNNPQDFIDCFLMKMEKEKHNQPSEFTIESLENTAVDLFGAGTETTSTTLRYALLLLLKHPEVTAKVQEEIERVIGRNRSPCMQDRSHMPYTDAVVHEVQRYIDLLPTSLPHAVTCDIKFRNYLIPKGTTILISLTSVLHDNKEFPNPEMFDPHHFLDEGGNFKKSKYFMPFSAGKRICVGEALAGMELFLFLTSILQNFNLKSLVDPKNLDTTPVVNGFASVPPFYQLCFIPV

| SMILES | AC50 |
| --- | --- |
| O=C(NCC1CCCO1)C1c2ccccc2C(=O)N1Cc1ccc2c(c1)OCO2 (configuration not stated) | 11.2 µM (inconclusive) |
| ClCCNc1nc2cc(Cl)ccc2[nH]1 | 4.47 µM (inconclusive) |
| CCOc1c2ccc(C(=O)N[C@H](C)C3CCCCC3)cc2nn1CC | 14.1 µM (inconclusive) |
| COc1ccc(O[C@H]2C=C[C@@H](c3ccccc3)O[C@H]2CO/N=C2/[C@H]3O[C@@H]3[C@@H](O)[C@H]3[C@H]2CCn2c(=O)n(-c4ccccc4)c(=O)n23)cc1 | 2 µM (inconclusive) |

Biological target: Cytochrome P450 2D6 (Homo sapiens, UniProt P10635);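 note: CYP2D6 member of a cytochrome P450 panel assay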
Sequence (P10635 whole entry): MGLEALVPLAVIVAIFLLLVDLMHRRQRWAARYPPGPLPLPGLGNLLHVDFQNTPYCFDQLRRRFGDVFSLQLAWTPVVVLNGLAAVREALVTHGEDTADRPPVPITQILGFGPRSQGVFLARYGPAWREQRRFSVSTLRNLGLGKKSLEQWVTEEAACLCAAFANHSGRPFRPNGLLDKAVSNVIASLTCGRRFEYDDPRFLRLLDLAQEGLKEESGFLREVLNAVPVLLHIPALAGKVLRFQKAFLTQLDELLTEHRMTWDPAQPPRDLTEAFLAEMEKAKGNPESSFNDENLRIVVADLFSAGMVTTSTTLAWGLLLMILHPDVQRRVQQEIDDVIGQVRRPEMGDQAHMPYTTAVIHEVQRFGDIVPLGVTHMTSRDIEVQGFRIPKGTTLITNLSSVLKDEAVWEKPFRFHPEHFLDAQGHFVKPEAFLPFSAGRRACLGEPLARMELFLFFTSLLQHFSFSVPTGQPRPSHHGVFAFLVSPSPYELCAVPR
Settings: not given

| SMILES | AC50 |
| --- | --- |
| O=C(NCC1CCCO1)C1c2ccccc2C(=O)N1Cc1ccc2c(c1)OCO2 (configuration not stated) | 15.8 µM (inconclusive) |
| OC(c1ccccc1)(c1ccccc1)C1CCCN1 (configuration not stated) | 25.1 µM (inconclusive) |
| CCSc1nnc([C@@H](N)Cc2c[nH]c3ccccc23)o1 | 12.6 µM (inconclusive) |
| CC(C)(C)NC[C@H](O)c1ccccc1Cl | 31.6 µM (inconclusive) |
| ClCCNc1nc2cc(Cl)ccc2[nH]1 | 6.31 µM (inconclusive) |
| COCC(C)n1c(C)cc(C(=O)CSc2nnc(Nc3ccccc3F)s2)c1C (configuration not stated) | 25.1 µM (inconclusive) |
| CCOc1c2ccc(C(=O)N[C@H](C)C3CCCCC3)cc2nn1CC | 10 µM (inconclusive) |
| O=C(N/N=C/c1cccc(OCc2ccccc2)c1)c1cccs1 | 25.1 µM (inconclusive) |
| O=C(Nc1ccc(Cl)c(Cl)c1)N1CCC(N2CCCCC2)CC1 | 10 µM (inconclusive) |
| COc1ccc(O[C@H]2C=C[C@@H](c3ccccc3)O[C@H]2CO/N=C2/[C@H]3O[C@@H]3[C@@H](O)[C@H]3[C@H]2CCn2c(=O)n(-c4ccccc4)c(=O)n23)cc1 | 3.98 µM (inconclusive) |
| O=C(Cn1cc(C(F)(F)F)ccc1=O)N1CCN(S(=O)(=O)c2ccccc2)CC1 | 11.2 µM (inconclusive) |

Tested on: not listed separately
Test: Luminescence Cell-Based Dose Confirmation HTS to Identify Inhibitors of Platelet Dense Granule Release. [Related pubchem assays: 1663 (Primary HTS), 1678 (Summary of Project)]
Type: functional
Settings: not given

| SMILES | EC50 |
| --- | --- |
| Cc1cc(NC(=O)c2c(Cl)cccc2Cl)no1 | > 112 µM (not active) |
| COc1ccc(CN=C(S)NNC(=O)c2cc3ccccc3o2)cc1 | > 112 µM (not active) |
| CCOC(=S)SCC(=O)Nc1nccs1 | 21.6 µM (active) |
| COc1cc2sc3ccc(C#CC4(O)CCCCC4)cc3c(=O)c2cc1OC | 4.69 µM (active) |
| CCOC(=O)c1c(C)[nH]c(C(=O)C(C)OC(=O)c2oc3ccccc3c2COC)c1C (configuration not stated) | 5.48 µM (active) |
| N=C(NOC(=O)c1ccc(Cl)cc1Cl)c1ccccn1 | 3.11 µM (active) |
| CCN(CC(=O)Nc1ccccc1OC)C(=O)Cn1cnc2ccccc2c1=O | > 112 µM (not active) |
| Cc1cccc(NC(=O)C2CCCN(C(=O)NC3CCCCC3)C2)c1C (configuration not stated) | > 112 µM (not active) |
| CC(Oc1ccccc1Cl)C(=O)Nc1ccc(S(=O)(=O)N2CCCC2)cc1 (configuration not stated) | > 112 µM (not active) |

Biological target: T1, Cytochrome P450 1A2 (Homo sapiens, UniProt P05177);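 note: PubChem cytochrome P450 panel assay, CYP1A2 panel member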
T1 sequence (P05177 whole entry): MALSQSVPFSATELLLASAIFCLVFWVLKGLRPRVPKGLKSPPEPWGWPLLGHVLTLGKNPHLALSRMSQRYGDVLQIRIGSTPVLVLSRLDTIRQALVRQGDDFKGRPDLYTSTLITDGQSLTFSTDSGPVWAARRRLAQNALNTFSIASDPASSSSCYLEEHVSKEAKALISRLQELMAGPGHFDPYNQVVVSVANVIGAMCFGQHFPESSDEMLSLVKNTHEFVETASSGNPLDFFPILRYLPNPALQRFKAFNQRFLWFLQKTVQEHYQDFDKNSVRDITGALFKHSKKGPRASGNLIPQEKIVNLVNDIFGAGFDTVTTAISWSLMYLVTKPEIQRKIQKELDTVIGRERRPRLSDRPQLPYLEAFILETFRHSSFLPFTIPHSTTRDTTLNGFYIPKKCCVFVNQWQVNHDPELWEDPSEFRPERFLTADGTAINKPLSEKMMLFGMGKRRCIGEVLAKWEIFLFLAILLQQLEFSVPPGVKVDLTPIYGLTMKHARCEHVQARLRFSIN
Settings: not given

| SMILES | AC50 |
| --- | --- |
| O=C(NCC1CCCO1)C1c2ccccc2C(=O)N1Cc1ccc2c(c1)OCO2 (configuration not stated) | 15.8 µM (inconclusive) |
| CCSc1nnc([C@@H](N)Cc2c[nH]c3ccccc23)o1 | 17.8 µM (inconclusive) |
| COCC(C)n1c(C)cc(C(=O)CSc2nnc(Nc3ccccc3F)s2)c1C (configuration not stated) | 28.2 µM (inconclusive) |
| CCOc1c2ccc(C(=O)N[C@H](C)C3CCCCC3)cc2nn1CC | 12.6 µM (inconclusive) |
| O=C(Cn1cc(C(F)(F)F)ccc1=O)N1CCN(S(=O)(=O)c2ccccc2)CC1 | 39.8 µM (inconclusive) |

Biological target: Cytochrome P450 3A4 (Homo sapiens, UniProt P08684);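 note: CYP3A4 tested as one member of a cytochrome P450 panel screen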
Sequence (P08684 whole entry): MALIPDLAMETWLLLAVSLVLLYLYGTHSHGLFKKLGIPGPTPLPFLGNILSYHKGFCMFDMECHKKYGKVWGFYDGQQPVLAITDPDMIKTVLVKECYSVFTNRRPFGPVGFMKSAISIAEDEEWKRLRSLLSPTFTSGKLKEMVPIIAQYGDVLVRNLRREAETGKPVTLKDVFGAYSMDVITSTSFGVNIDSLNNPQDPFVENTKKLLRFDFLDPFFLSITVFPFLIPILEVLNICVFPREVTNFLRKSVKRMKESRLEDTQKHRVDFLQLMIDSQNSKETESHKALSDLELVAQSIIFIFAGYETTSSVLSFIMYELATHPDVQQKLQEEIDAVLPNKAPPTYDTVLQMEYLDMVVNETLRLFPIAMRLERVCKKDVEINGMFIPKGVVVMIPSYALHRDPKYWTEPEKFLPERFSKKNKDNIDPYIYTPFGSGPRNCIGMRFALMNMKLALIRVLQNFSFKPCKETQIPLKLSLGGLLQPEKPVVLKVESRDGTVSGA
Settings: not given

| SMILES | AC50 |
| --- | --- |
| CCOc1c2ccc(C(=O)N[C@H](C)C3CCCCC3)cc2nn1CC | 25.1 µM (inconclusive) |
| O=C(N/N=C/c1cccc(OCc2ccccc2)c1)c1cccs1 | 20 µM (inconclusive) |
| O=C(Nc1ccc(Cl)c(Cl)c1)N1CCC(N2CCCCC2)CC1 | 22.4 µM (inconclusive) |

Biological target: Luciferin 4-monooxygenase (Photinus pyralis, UniProt P08659)
Sequence (P08659 whole entry): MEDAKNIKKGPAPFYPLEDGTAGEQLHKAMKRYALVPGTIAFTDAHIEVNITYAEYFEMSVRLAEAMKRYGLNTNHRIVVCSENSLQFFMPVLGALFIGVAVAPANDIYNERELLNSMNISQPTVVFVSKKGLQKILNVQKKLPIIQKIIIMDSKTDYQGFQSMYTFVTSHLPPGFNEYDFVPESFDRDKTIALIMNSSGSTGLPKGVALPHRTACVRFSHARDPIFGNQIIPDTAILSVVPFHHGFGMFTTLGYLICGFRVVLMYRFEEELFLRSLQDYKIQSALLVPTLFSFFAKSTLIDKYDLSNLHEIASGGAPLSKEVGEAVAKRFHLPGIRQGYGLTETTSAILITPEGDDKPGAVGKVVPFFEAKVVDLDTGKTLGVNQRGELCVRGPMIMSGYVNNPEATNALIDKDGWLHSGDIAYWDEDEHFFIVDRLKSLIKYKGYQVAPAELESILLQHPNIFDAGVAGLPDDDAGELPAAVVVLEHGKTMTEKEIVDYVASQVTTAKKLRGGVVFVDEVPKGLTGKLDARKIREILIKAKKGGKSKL
Test: firefly luciferase enzyme inhibitors, dose response, biochemical, luminescence (AID 1891)
Settings: not given

| SMILES | EC50 |
| --- | --- |
| Cc1cc(NC(=O)c2c(Cl)cccc2Cl)no1 | > 112 µM (not active) |
| COc1ccc(CN=C(S)NNC(=O)c2cc3ccccc3o2)cc1 | > 112 µM (not active) |
| CCOC(=S)SCC(=O)Nc1nccs1 | > 112 µM (not active) |
| COc1cc2sc3ccc(C#CC4(O)CCCCC4)cc3c(=O)c2cc1OC | 2.35 µM (active) |
| CCOC(=O)c1c(C)[nH]c(C(=O)C(C)OC(=O)c2oc3ccccc3c2COC)c1C (configuration not stated) | > 112 µM (not active) |
| N=C(NOC(=O)c1ccc(Cl)cc1Cl)c1ccccn1 | 1.05 µM (active) |
| CCN(CC(=O)Nc1ccccc1OC)C(=O)Cn1cnc2ccccc2c1=O | > 112 µM (not active) |
| Cc1cccc(NC(=O)C2CCCN(C(=O)NC3CCCCC3)C2)c1C (configuration not stated) | > 112 µM (not active) |
| CC(Oc1ccccc1Cl)C(=O)Nc1ccc(S(=O)(=O)N2CCCC2)cc1 (configuration not stated) | 32 µM (active) |

Tested on: INS1
Test: beta cell apoptosis inhibitors, cytokine rescue, dose response, luminescence, retest (AID 449756);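 note: cell death triggered by IL-1 beta plus TNF-alpha plus IFN-gamma mixture; protective hits raise ATP signal compared with cytokine alone wells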
Type: functional, cell-based
Settings: Rattus norvegicus

| SMILES | AC50 |
| --- | --- |
| N=C(NOC(=O)c1ccc(Cl)cc1Cl)c1ccccn1 | 30 µM (active) |

Biological target: Cytochrome P450 2C19 (Homo sapiens, UniProt P33261)
Sequence (P33261 whole entry): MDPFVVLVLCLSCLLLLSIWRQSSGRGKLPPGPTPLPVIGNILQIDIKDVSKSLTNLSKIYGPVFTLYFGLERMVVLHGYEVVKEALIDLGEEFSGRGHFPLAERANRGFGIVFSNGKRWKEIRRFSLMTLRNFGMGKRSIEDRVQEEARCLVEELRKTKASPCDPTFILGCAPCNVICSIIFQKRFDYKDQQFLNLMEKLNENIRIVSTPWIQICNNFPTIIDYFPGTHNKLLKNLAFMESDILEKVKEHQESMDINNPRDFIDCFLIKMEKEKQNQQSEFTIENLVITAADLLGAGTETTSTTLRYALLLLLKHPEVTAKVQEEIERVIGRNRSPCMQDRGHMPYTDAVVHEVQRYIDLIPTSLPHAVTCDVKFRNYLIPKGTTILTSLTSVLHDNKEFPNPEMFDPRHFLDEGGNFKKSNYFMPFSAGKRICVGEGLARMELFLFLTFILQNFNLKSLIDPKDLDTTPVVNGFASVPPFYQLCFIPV
Test: Cytochrome panel assay with activity outcomes. Panel member name: p450-cyp2c19 Compounds with AC50 equal or less than 10 uM are considered active
Type: functional
Settings: read-out: AC50

| SMILES | AC50 |
| --- | --- |
| OC(c1ccccc1)(c1ccccc1)C1CCCN1 (configuration not stated) | 1.41 µM (inconclusive) |
| ClCCNc1nc2cc(Cl)ccc2[nH]1 | 15.8 µM (inconclusive) |
| CCOc1c2ccc(C(=O)N[C@H](C)C3CCCCC3)cc2nn1CC | 28.2 µM (inconclusive) |
| O=C(Nc1ccc(Cl)c(Cl)c1)N1CCC(N2CCCCC2)CC1 | 39.8 µM (inconclusive) |
| O=C(Cn1cc(C(F)(F)F)ccc1=O)N1CCN(S(=O)(=O)c2ccccc2)CC1 | 31.6 µM (inconclusive) |
